Reference: publication PMC6308302, “Identification of Pharmacokinetic Markers for Guanxin Danshen Drop Pills in Rats by Combination of Pharmacokinetics, Systems Pharmacology, and Pharmacodynamic Assays” (Frontiers in Pharmacology, 2018)
Entries after “also recorded” stand apart in the source; their conditions may differ. Marks after values point to notes of the source that are not given here.

Experiments:
[1] = Aqueous solubility test (vortexing in water); assay type: physicochemical; details: thermodynamic from solid; determined, water, 25 °C, 1 atm
Method: Aqueous solubility (S) test of the 17 ingredients was performed by vortexing 10 mg of each ingredient in […] water in a test tube at ambient temperature and 1 atm. After vortexing for 5 min, if the solution is clear, the tested object will be considered as soluble in water. In silico assessment of the physicochemical properties governing permeation and intestinal absorption was carried out for the 17 ingredients studied. Theory aqueous solubility (S) was calculated with ALOGPS 2.1 online software via the Virtual Computational Chemistry Laboratory service (Chemoinformatics Group, Neuherberg, Germany) (VCCLAB^1). The octanol–water partition coefficient (cLogP), the total hydrogen bond count (donors and acceptors), and topological polar surface area (TPSA) were determined using the Molinspiration Property Calculator (Molinspiration Cheminformatics, Bratislava, Slovak Republic^2). Lipinski’s rule of 5 was used to predict the permeability of the compound ([Lipinski et al., 2001]).

[2] = Multiple component PK study in rat plasma after p.o. GDDP (HPLC-MS); details: for determination in rat plasma at the planned successive PK time points / detection in rat plasma: GDDP 0.8 g/kg p.o.; for determination in rat plasma at the planned successive PK time points: 5, 10, 15, 30, 45, 60, and 120 min, LOQ 1.0–1.4 ng/mL; for detection in rat plasma: at 5, 10, 15, 30, 45, or 60 min, LOD 0.5–0.7 ng/mL; for AUC(0-inf) / AUC(0-t) / MRT inf / MRT last / Tmax / Cmax / half-life: Sprague-Dawley, rat, plasma, po
Caco-2 cell monolayers = details: ref Lu et al., 2008, Liu et al., 2009, Hu et al., 2014, Bowles et al., 2017, cited from earlier work; for Papp(apical→basolateral) / Papp(basolateral→apical): Caco-2 cell monolayers, from literature; for apparent permeability in Caco-2 cell monolayers: previous results
[3] = Stability tests in rat plasma (QC samples, HPLC-MS); details: n=5
Excerpt: Accuracy and precision were expressed by relative error (RE) and coefficient of variance (RSD), respectively.

[4] = system: isoprenaline-induced MI in mice; assay: In vivo anti-MI study: isoprenaline-induced myocardial injury (ECG, H&E histology); details: for Histopathology of heart tissue (H&E): 40 mg/kg; for ECG (lead II) findings on the fifth day of the trial: 40 mg/kg p.o., isoprenaline 5 mg/kg on days 4 and 5
[5] = 0.4 g/kg, Cmax, rat plasma, GDDP 0.4 g/kg p.o. (Low dose group), n=3
[6] = 0.4 g/kg, t1/2 β, rat plasma, GDDP 0.4 g/kg p.o. (Low dose group), n=3
[7] = 0.8 g/kg, Cmax (high / low plasma drug concentrations), rats, GDDP 0.4 and 0.8 g/kg p.o., classification
[8] = 0.8 g/kg, Cmax, rat plasma, GDDP 0.8 g/kg p.o. (High dose group), n=3
[9] = 0.8 g/kg, t1/2 β (fast / slow elimination type), rats, GDDP 0.4 and 0.8 g/kg p.o., classification
[10] = 0.8 g/kg, t1/2 β, rat plasma, GDDP 0.8 g/kg p.o. (High dose group), n=3
[11] = rat plasma, GDDP 0.4 g/kg p.o. (Low dose group), n=3
[12] = rat plasma, GDDP 0.8 g/kg p.o. (High dose group), n=3
[13] = 24h in auto-sampler vials, spiked 2 ng/mL
[14] = 24h in auto-sampler vials, spiked 400 ng/mL
[15] = 24h in auto-sampler vials, spiked 1600 ng/mL
[16] = Placing plasma for 6h at 4°C, spiked 2 ng/mL
[17] = Placing plasma for 6h at 4°C, spiked 400 ng/mL
[18] = Placing plasma for 6h at 4°C, spiked 1600 ng/mL
[19] = three freeze-thaw cycles, rat plasma, spiked 2 ng/mL
[20] = three freeze-thaw cycles, rat plasma, spiked 400 ng/mL
[21] = three freeze-thaw cycles, rat plasma, spiked 1600 ng/mL
[22] = 40 mg/kg p.o. for 7 days, isoprenaline-induced MI

CC(C)=CCC[C@](C)(O[C@@H]1O[C@H](CO[C@@H]2O[C@H](CO)[C@@H](O)[C@H](O)[C@H]2O)[C@@H](O)[C@H](O)[C@H]1O)[C@H]1CC[C@]2(C)[C@@H]1[C@H](O)C[C@@H]1[C@@]3(C)CC[C@H](O[C@@H]4O[C@H](CO)[C@@H](O)[C@H](O)[C@H]4O[C@@H]4O[C@H](CO)[C@@H](O)[C@H](O)[C@H]4O)C(C)(C)[C@@H]3CC[C@]12C [Rb1, ginsenoside Rb1]
solubility at 5 min [1]: > 10000 µg/mL
determination in rat plasma at the planned successive PK time points [2]: could be determined
detection in rat plasma [2]: could be detected
AUC(0-inf) ([2]; 0.4 g/kg): 1930 ± 1300 ng·h/mL
AUC(0-t) ([2]; 0.4 g/kg): 818 ± 272 ng·h/mL
MRT inf ([2]; 0.4 g/kg): 36.6 ± 17.7 h
MRT last ([2]; 0.4 g/kg): 11.42 ± 0.11 h
Tmax ([2]; 0.4 g/kg): 3.25 ± 3.89 h
Cmax [2, 5]: 57 ± 27.3 ng/mL
half-life [2, 6]: 22.9 ± 12.4 h
AUC(0-inf) ([2]; 0.8 g/kg): 1350 ± 486 ng·h/mL
AUC(0-t) ([2]; 0.8 g/kg): 998 ± 200 ng·h/mL
MRT inf ([2]; 0.8 g/kg): 17.1 ± 4.98 h
MRT last ([2]; 0.8 g/kg): 9.63 ± 0.6 h
Tmax ([2]; 0.8 g/kg): 3.34 ± 3.05 h
Cmax [2, 7]: > 20 ng/mL
Cmax [2, 8]: 80.3 ± 19.2 ng/mL
half-life [2, 9]: > 2.6 h
half-life [2, 10]: 10.8 ± 4.03 h
Cltot [2, 11]: 18 ± 12 mL/min/kg
Cltot [2, 12]: 43.2 ± 13.5 mL/min/kg
systematic exposure (AUC0-∞), times higher than those of CTS and DHTS ([2]; rats, p.o. GDDP, P < 0.05): 84–1137 times
systematic exposure (AUC0-∞), times higher than those of Rd, R1, Rg1, TS IIA, and TS I ([2]; rats, p.o. GDDP, P < 0.05): 3.5–30 times
Papp(apical→basolateral) (Caco-2 cell monolayers): > 0.1^c ×10^-6 cm/s
Papp(basolateral→apical) (Caco-2 cell monolayers): > 0.1^c ×10^-6 cm/s
apparent permeability in Caco-2 cell monolayers (Caco-2 cell monolayers): > 10^-7 cm/s
Stability: Measured [3, 13]: 1.97 ± 0.29 ng/mL
Stability: RE [3, 13]: -1.62%
Stability: Measured [3, 14]: 386.10 ± 20.53 ng/mL
Stability: RE [3, 14]: -3.47%
Stability: Measured [3, 15]: 1540.64 ± 55.53 ng/mL
Stability: RE [3, 15]: -3.71%
Stability: Measured [3, 16]: 1.66 ± 0.17 ng/mL
Stability: RE [3, 16]: -16.86%
Stability: Measured [3, 17]: 376.87 ± 18.97 ng/mL
Stability: RE [3, 17]: -5.78%
Stability: Measured [3, 18]: 1647.48 ± 31.81 ng/mL
Stability: RE [3, 18]: 2.97%
Stability: Measured [3, 19]: 1.75 ± 0.23 ng/mL
Stability: RE [3, 19]: -12.42%
Stability: Measured [3, 20]: 394.28 ± 21.32 ng/mL
Stability: RE [3, 20]: -1.43%
Stability: Measured [3, 21]: 1601.88 ± 26.56 ng/mL
Stability: RE [3, 21]: 0.12%
anti-MI effect (overall conclusion) [4, 22]: favorable anti-MI effect
Histopathology of heart tissue (H&E) [4, 22]: less severe histological damage with mild cell distortion, edema, and good continuity with adjacent myofibrils
ECG (lead II) findings on the fifth day of the trial [4]: T waves reversed or decreased

CC(C)=CCC[C@](C)(O[C@@H]1O[C@H](CO)[C@@H](O)[C@H](O)[C@H]1O)[C@H]1CC[C@]2(C)[C@@H]1[C@H](O)C[C@@H]1[C@@]3(C)CC[C@H](O[C@@H]4O[C@H](CO)[C@@H](O)[C@H](O)[C@H]4O[C@@H]4O[C@H](CO)[C@@H](O)[C@H](O)[C@H]4O)C(C)(C)[C@@H]3CC[C@]12C [Rd, ginsenoside Rd]
solubility at 5 min [1]: > 10000 µg/mL
determination in rat plasma at the planned successive PK time points [2]: could be determined
detection in rat plasma [2]: could be detected
AUC(0-inf) ([2]; 0.4 g/kg): 340 ± 348 ng·h/mL
AUC(0-t) ([2]; 0.4 g/kg): 254 ± 236 ng·h/mL
MRT inf ([2]; 0.4 g/kg): 12.8 ± 8.78 h
MRT last ([2]; 0.4 g/kg): 8.88 ± 3.79 h
Tmax ([2]; 0.4 g/kg): 9 ± 4.24 h
Cmax [2, 5]: 24.5 ± 4.04 ng/mL
half-life [2, 6]: 5.63 ± 5.88 h
AUC(0-inf) ([2]; 0.8 g/kg): 378 ± 56.4 ng·h/mL
AUC(0-t) ([2]; 0.8 g/kg): 281 ± 28.1 ng·h/mL
MRT inf ([2]; 0.8 g/kg): 17.3 ± 2.01 h
MRT last ([2]; 0.8 g/kg): 10.7 ± 2.31 h
Tmax ([2]; 0.8 g/kg): 2.25 ± 3.25 h
Cmax [2, 7]: > 20 ng/mL
Cmax [2, 8]: 37.2 ± 26.3 ng/mL
half-life [2, 9]: > 2.6 h
half-life [2, 10]: 8.53 ± 4.42 h
Cltot [2, 11]: 624.2 ± 638.8 mL/min/kg
Cltot [2, 12]: 350.3 ± 310.5 mL/min/kg
Papp(apical→basolateral) (Caco-2 cell monolayers): > 0.1^c ×10^-6 cm/s
Papp(basolateral→apical) (Caco-2 cell monolayers): > 0.1^c ×10^-6 cm/s
apparent permeability in Caco-2 cell monolayers (Caco-2 cell monolayers): > 10^-7 cm/s
Stability: Measured [3, 13]: 1.93 ± 0.23 ng/mL
Stability: RE [3, 13]: -3.59%
Stability: Measured [3, 14]: 406.43 ± 27.13 ng/mL
Stability: RE [3, 14]: 1.61%
Stability: Measured [3, 15]: 1489.53 ± 52.70 ng/mL
Stability: RE [3, 15]: -6.90%
Stability: Measured [3, 16]: 1.65 ± 0.33 ng/mL
Stability: RE [3, 16]: -17.56%
Stability: Measured [3, 17]: 449.87 ± 18.67 ng/mL
Stability: RE [3, 17]: 12.47%
Stability: Measured [3, 18]: 1891.74 ± 134.38 ng/mL
Stability: RE [3, 18]: 18.23%
Stability: Measured [3, 19]: 1.81 ± 0.18 ng/mL
Stability: RE [3, 19]: -9.59%
Stability: Measured [3, 20]: 438.01 ± 11.23 ng/mL
Stability: RE [3, 20]: 9.50%
Stability: Measured [3, 21]: 1768.72 ± 60.05 ng/mL
Stability: RE [3, 21]: 10.54%
Histopathology of heart tissue (H&E) [4, 22]: remarkably severe histological damage with extensive myocardial lysis and architecture wrecking; also recorded: extremely severe histological damage with extensive myocardial lysis and architecture wrecking
ECG (lead II) findings on the fifth day of the trial [4]: ST segment elevated
